Results: the supplement of paper PMC11208160

Assay: recombinant UMI read abundance after kanamycin selection (control-corrected) (log10(CPM+1)); higher = more efficient recombination; extreme values may be limits of the assay; sequences stand for … in AGTGCAGAGAAAATCGGCCAGTTTTCTCTGCCTGCAGTCCGCATGCCGTGGGACCCCTTGGGTTCTAACCTGTTGCCTAGATTTATGCAGCGGACTGCCTTTCTCCCAAAGTGATAAACCGG…AGGTTGGTTTCACT; site = the 11-nt donor
Method: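 Pooled E. coli donor-specificity screen for the IS621 bridge recombinase. Each library member carries a reprogrammed 11-nt donor and a full-length LE bridge RNA expressed in cis from the natural promoter, with a paired donor-binding loop (8-nt LDG + 4-nt RDG) and a target-binding loop fixed to T5. It is co-electroporated with a T5 target plasmid; recombinase is induced with 0.07 mM IPTG and recombinants are selected on kanamycin. UMIs are counted as CPM, averaged over two biological replicates and corrected by the unselected control. Molecule = full bridge RNA written as DNA, built from the T5 scaffold: LDG = donor specificity nt 1-8, RDG = reverse complement of nt 8-11.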
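Also: IS621 bridge recombinase in Escherichia coli cells against a fixed T5 target plasmid.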

Sequence: AATTATGCATGGACCGGTTTTCCCGGTAATCCGTATTTGGA (site AGTTATGCTTC)
- recombinant UMI read abundance (log10): 1.09

Sequence: AATTATGCATGGACCGGTTTTCCCGGTAATCCGTATTTGGA (site ATTTATGCTTC)
- recombinant UMI read abundance (log10): 1.25

Sequence: AATTATGCATGGACCGGTTTTCCCGGTAATCCGTATTTGGA (site CATTATGCTTC)
- recombinant UMI read abundance (log10): 1.51

Sequence: AATTATGCATGGACCGGTTTTCCCGGTAATCCGTATTTGGA (site GATTATGCTTC)
- recombinant UMI read abundance (log10): 0.983

Sequence: AATTATGCATGGACCGGTTTTCCCGGTAATCCGTATTTGGA (site TATTATGCTTC)
- recombinant UMI read abundance (log10): 0.862

Sequence: AATTATGCATGGACCGGTTTTCCCGGTAATCCGTATTTGGT (site AATTATGCTAC)
- recombinant UMI read abundance (log10): 2.02

Sequence: AATTATGCATGGACCGGTTTTCCCGGTAATCCGTATTTGGT (site AATTATGCTCC)
- recombinant UMI read abundance (log10): 0.00684

Sequence: AATTATGCATGGACCGGTTTTCCCGGTAATCCGTATTTGGT (site AATTATGCTGC)
- recombinant UMI read abundance (log10): 0

Sequence: AATTATGCATGGACCGGTTTTCCCGGTAATCCGTATTTGGT (site AATTATGCTTC)
- recombinant UMI read abundance (log10): 0.0116

Sequence: AATTGCTCATGGACCGGTTTTCCCGGTAATCCGTATTTGCC (site AATTGCTCTGG)
- recombinant UMI read abundance (log10): 2.51

Sequence: AATTGGGCATGGACCGGTTTTCCCGGTAATCCGTATTTGAA (site AATTGGGCTTT)
- recombinant UMI read abundance (log10): 0.399

Sequence: AATTTGTCATGGACCGGTTTTCCCGGTAATCCGTATTTGAC (site AATATGTCTGT)
- recombinant UMI read abundance (log10): 0

Sequence: AATTTGTCATGGACCGGTTTTCCCGGTAATCCGTATTTGAC (site AATCTGTCTGT)
- recombinant UMI read abundance (log10): 0

Sequence: AATTTGTCATGGACCGGTTTTCCCGGTAATCCGTATTTGAC (site AATGTGTCTGT)
- recombinant UMI read abundance (log10): 0

Sequence: AATTTGTCATGGACCGGTTTTCCCGGTAATCCGTATTTGAC (site AATTTGTCTGT)
- recombinant UMI read abundance (log10): 0

Sequence: ACAAAATCATGGACCGGTTTTCCCGGTAATCCGTATTTGCA (site ACAAAATCTTG)
- recombinant UMI read abundance (log10): 1.3

Sequence: ACAAAATCATGGACCGGTTTTCCCGGTAATCCGTATTTGCA (site ACAGTATCTTG)
- recombinant UMI read abundance (log10): 1.45

Sequence: ACAAAGGCATGGACCGGTTTTCCCGGTAATCCGTATTTGCT (site AAAAAGGCTAG)
- recombinant UMI read abundance (log10): 0

Sequence: ACAAAGGCATGGACCGGTTTTCCCGGTAATCCGTATTTGCT (site ACAAAGGCTAG)
- recombinant UMI read abundance (log10): 2.57

Sequence: ACAAAGGCATGGACCGGTTTTCCCGGTAATCCGTATTTGCT (site AGAAAGGCTAG)
- recombinant UMI read abundance (log10): 0

Sequence: ACAAAGGCATGGACCGGTTTTCCCGGTAATCCGTATTTGCT (site ATAAAGGCTAG)
- recombinant UMI read abundance (log10): 1.17

Sequence: ACAACTACATGGACCGGTTTTCCCGGTAATCCGTATTTGTG (site ACAACTACTCA)
- recombinant UMI read abundance (log10): 0.844

Sequence: ACAACTACATGGACCGGTTTTCCCGGTAATCCGTATTTGTG (site ACACCTACTCA)
- recombinant UMI read abundance (log10): 0.0441

Sequence: ACAACTACATGGACCGGTTTTCCCGGTAATCCGTATTTGTG (site ACAGCTACTCA)
- recombinant UMI read abundance (log10): 0.0923

Sequence: ACAACTACATGGACCGGTTTTCCCGGTAATCCGTATTTGTG (site ACATCTACTCA)
- recombinant UMI read abundance (log10): 0.146

Sequence: ACAAGAACATGGACCGGTTTTCCCGGTAATCCGTATTTGAG (site ACAAGAACTCT)
- recombinant UMI read abundance (log10): 2.72

Sequence: ACAAGAACATGGACCGGTTTTCCCGGTAATCCGTATTTGAG (site ACCAGAACTCT)
- recombinant UMI read abundance (log10): 0.645

Sequence: ACAAGAACATGGACCGGTTTTCCCGGTAATCCGTATTTGAG (site ACGAGAACTCT)
- recombinant UMI read abundance (log10): 1.41

Sequence: ACAAGAACATGGACCGGTTTTCCCGGTAATCCGTATTTGAG (site ACTAGAACTCT)
- recombinant UMI read abundance (log10): 0.755

Sequence: ACAAGGCCATGGACCGGTTTTCCCGGTAATCCGTATTTGAC (site AAAAGGCCTGT)
- recombinant UMI read abundance (log10): 0

Sequence: ACAAGGCCATGGACCGGTTTTCCCGGTAATCCGTATTTGAC (site ACAAGGCCTGT)
- recombinant UMI read abundance (log10): 0.512

Sequence: ACAAGGCCATGGACCGGTTTTCCCGGTAATCCGTATTTGAC (site AGAAGGCCTGT)
- recombinant UMI read abundance (log10): 0

Sequence: ACAAGGCCATGGACCGGTTTTCCCGGTAATCCGTATTTGAC (site ATAAGGCCTGT)
- recombinant UMI read abundance (log10): 1.34

Sequence: ACAAGTGCATGGACCGGTTTTCCCGGTAATCCGTATTTGGT (site ACAAGTGCTAC)
- recombinant UMI read abundance (log10): 2.04

Sequence: ACAAGTGCATGGACCGGTTTTCCCGGTAATCCGTATTTGGT (site ACCAGTGCTAC)
- recombinant UMI read abundance (log10): 0.897

Sequence: ACAAGTGCATGGACCGGTTTTCCCGGTAATCCGTATTTGGT (site ACGAGTGCTAC)
- recombinant UMI read abundance (log10): 1.09

Sequence: ACAAGTGCATGGACCGGTTTTCCCGGTAATCCGTATTTGGT (site ACTAGTGCTAC)
- recombinant UMI read abundance (log10): 1.16

Sequence: ACAATATCATGGACCGGTTTTCCCGGTAATCCGTATTTGCT (site ACAATATCTAG)
- recombinant UMI read abundance (log10): 2.64

Sequence: ACAATATCATGGACCGGTTTTCCCGGTAATCCGTATTTGCT (site ACAGTATCTTG)
- recombinant UMI read abundance (log10): 0.278

Sequence: ACAATGGCATGGACCGGTTTTCCCGGTAATCCGTATTTGAT (site ACAATGGCTAT)
- recombinant UMI read abundance (log10): 2.3

Sequence: ACACAGCCATGGACCGGTTTTCCCGGTAATCCGTATTTGAC (site ACACAACCTGT)
- recombinant UMI read abundance (log10): 0

Sequence: ACACAGCCATGGACCGGTTTTCCCGGTAATCCGTATTTGAC (site ACACACCCTGT)
- recombinant UMI read abundance (log10): 1.68

Sequence: ACACAGCCATGGACCGGTTTTCCCGGTAATCCGTATTTGAC (site ACACAGCCTGT)
- recombinant UMI read abundance (log10): 1.05

Sequence: ACACAGCCATGGACCGGTTTTCCCGGTAATCCGTATTTGAC (site ACACATCCTGT)
- recombinant UMI read abundance (log10): 0.0116

Sequence: ACACAGCCATGGACCGGTTTTCCCGGTAATCCGTATTTGTG (site ACACAGCCTCA)
- recombinant UMI read abundance (log10): 0.606

Sequence: ACACCAACATGGACCGGTTTTCCCGGTAATCCGTATTTGTC (site ACACAAACTGA)
- recombinant UMI read abundance (log10): 0

Sequence: ACACCAACATGGACCGGTTTTCCCGGTAATCCGTATTTGTC (site ACACCAACTGA)
- recombinant UMI read abundance (log10): 1.62

Sequence: ACACCAACATGGACCGGTTTTCCCGGTAATCCGTATTTGTC (site ACACGAACTGA)
- recombinant UMI read abundance (log10): 0

Sequence: ACACCAACATGGACCGGTTTTCCCGGTAATCCGTATTTGTC (site ACACTAACTGA)
- recombinant UMI read abundance (log10): 0

Sequence: ACACCACCATGGACCGGTTTTCCCGGTAATCCGTATTTGAT (site ACACCACCTAT)
- recombinant UMI read abundance (log10): 0.00417

Sequence: ACACCTCCATGGACCGGTTTTCCCGGTAATCCGTATTTGAC (site ACACATCCTGT)
- recombinant UMI read abundance (log10): 0

Sequence: ACACCTCCATGGACCGGTTTTCCCGGTAATCCGTATTTGAC (site ACACCTCCTGT)
- recombinant UMI read abundance (log10): 1.93

Sequence: ACACCTCCATGGACCGGTTTTCCCGGTAATCCGTATTTGAC (site ACACGTCCTGT)
- recombinant UMI read abundance (log10): 0

Sequence: ACACCTCCATGGACCGGTTTTCCCGGTAATCCGTATTTGAC (site ACACTTCCTGT)
- recombinant UMI read abundance (log10): 0

Sequence: ACACGAACATGGACCGGTTTTCCCGGTAATCCGTATTTGAC (site ACACGAACTGA)
- recombinant UMI read abundance (log10): 1.64

Sequence: ACACGAACATGGACCGGTTTTCCCGGTAATCCGTATTTGAC (site ACACGAACTGC)
- recombinant UMI read abundance (log10): 0

Sequence: ACACGAACATGGACCGGTTTTCCCGGTAATCCGTATTTGAC (site ACACGAACTGG)
- recombinant UMI read abundance (log10): 1.33

Sequence: ACACGAACATGGACCGGTTTTCCCGGTAATCCGTATTTGAC (site ACACGAACTGT)
- recombinant UMI read abundance (log10): 2.62

Sequence: ACACGAACATGGACCGGTTTTCCCGGTAATCCGTATTTGTG (site ACACGAACTAA)
- recombinant UMI read abundance (log10): 0.269

Sequence: ACACGAACATGGACCGGTTTTCCCGGTAATCCGTATTTGTG (site ACACGAACTCA)
- recombinant UMI read abundance (log10): 1.91

Sequence: ACACGAACATGGACCGGTTTTCCCGGTAATCCGTATTTGTG (site ACACGAACTGA)
- recombinant UMI read abundance (log10): 0

Sequence: ACACGAACATGGACCGGTTTTCCCGGTAATCCGTATTTGTG (site ACACGAACTTA)
- recombinant UMI read abundance (log10): 0.766

Sequence: ACACGACCATGGACCGGTTTTCCCGGTAATCCGTATTTGTC (site ACACGAACTGA)
- recombinant UMI read abundance (log10): 0.0114

Sequence: ACACGACCATGGACCGGTTTTCCCGGTAATCCGTATTTGTC (site ACACGACCTGA)
- recombinant UMI read abundance (log10): 0

Sequence: ACACGACCATGGACCGGTTTTCCCGGTAATCCGTATTTGTC (site ACACGAGCTGA)
- recombinant UMI read abundance (log10): 0

Sequence: ACACGACCATGGACCGGTTTTCCCGGTAATCCGTATTTGTC (site ACACGATCTGA)
- recombinant UMI read abundance (log10): 1.22

Sequence: ACACGCACATGGACCGGTTTTCCCGGTAATCCGTATTTGTC (site ACACGAACTGA)
- recombinant UMI read abundance (log10): 1.62

Sequence: ACACGCACATGGACCGGTTTTCCCGGTAATCCGTATTTGTC (site ACACGCACTGA)
- recombinant UMI read abundance (log10): 2.85

Sequence: ACACGCACATGGACCGGTTTTCCCGGTAATCCGTATTTGTC (site ACACGGACTGA)
- recombinant UMI read abundance (log10): 0

Sequence: ACACGCACATGGACCGGTTTTCCCGGTAATCCGTATTTGTC (site ACACGTACTGA)
- recombinant UMI read abundance (log10): 0.934

Sequence: ACACGGACATGGACCGGTTTTCCCGGTAATCCGTATTTGTC (site ACACGAACTGA)
- recombinant UMI read abundance (log10): 0

Sequence: ACACGGACATGGACCGGTTTTCCCGGTAATCCGTATTTGTC (site ACACGCACTGA)
- recombinant UMI read abundance (log10): 0
